Results: patent US20170027893A1, “THIOSEMICARBAZONES INHIBITORS OF LYSOPHOSPHATIDIC ACID ACYLTRANSFERASE AND USES THEREOF” (H. LEE CANCER CENTER AND RESEARCH INSTITUTE, INC., priority 2014, published 2017)
Like-named read-outs stand apart in the source and are kept apart here. Blank lines part the entries; values can stand above or below the compound they belong to.

How the values were obtained:
LPAAT-β [1] = biological target: T1, LPAAT-β (Homo sapiens, UniProt O15120); details: previously reported inhibitors; cited from earlier work
T1 sequence (O15120 24-278): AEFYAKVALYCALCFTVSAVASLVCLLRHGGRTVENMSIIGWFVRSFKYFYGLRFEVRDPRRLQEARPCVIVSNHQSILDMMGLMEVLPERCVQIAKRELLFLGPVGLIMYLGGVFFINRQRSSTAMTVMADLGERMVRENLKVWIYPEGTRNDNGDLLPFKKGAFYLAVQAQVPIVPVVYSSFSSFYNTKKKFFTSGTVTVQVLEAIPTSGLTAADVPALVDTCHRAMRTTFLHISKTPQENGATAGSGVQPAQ

pancreatic cancer cells [2] = test: combination treatment with regorafenib (FIG. 23); type: cell-based
From the text: This is important for the use of YG9-095-3 in combination with standard therapy for Kras mutant colon cancer.

mTOR signaling = test: inhibition of mTOR signaling (FIG. 20); type: cell-based
From the text: P-p7056k and p-4EBP1 are decreased by treatment at 3 micromolar or higher.

pancreatic cancer cells [3] = test: cell cycle progression (FIG. 22); type: cell-based
[4] = test system: IGROV-1 ovarian cancer cells; test: combination with 5-FU, proliferation by Alamar blue, isobolograms; type: cell-based, human; details: IGROV-1, 72 hr, simultaneous combination
Description: (§1) FIG. 6. Synergistic effect of YG9-095-3 with 5-FU in IGROV-1 ovarian cancer cells. Human ovarian and pancreatic carcinoma cell lines (IGROV-1 and OVCAR-5; Panc-1) were treated for 72 hr with 19s, 5-FU, and the two drugs in simultaneous combination. […] However, in OVCAR-5 cells, at low concentration there appears to be an additive effect of the two drugs on proliferation, but the effect becomes antagonistic at the higher concentrations of YG9-095-3.

Panc-1 [5] = test: as above; type: cell-based, human; details: Panc-1, 72 hr
Description: as §1

OVCAR-5 cells = test: as above; type: cell-based, human; details: OVCAR-5, 72 hr
Description: as §1

MiaPaCa2 = test: anchorage-independent growth in agar; type: cell-based, human; details: MiaPaCa2, 2-4 weeks in agar
Description: (§2) FIG. 3. LPAAT-β inhibitors block anchorage-independent growth of cancer cell lines. Human pancreatic (MiaPaCa2 and Panc-1), ovarian (OVCAR-5) and breast cancer (MDAMB-231) cells were plated into 3% agar containing LPAAT-β inhibitors and allowed to grow for 2-4 weeks in the presence of the compounds. […] This effect of the small molecules is similar to the effect of knockdown with LPAAT-β siRNA (nt, non-targeting; LP-1, LPAAT-β).

MDAMB-231 = test: anchorage-independent growth in agar; type: cell-based, human; details: MDAMB-231, 2-4 weeks in agar
Description: as §2

Panc-1 [6] = test: anchorage-independent growth in agar; type: cell-based, human; details: Panc-1, 2-4 weeks in agar
Description: as §2

OVCAR-5 = test: anchorage-independent growth in agar; type: cell-based, human; details: OVCAR-5, 2-4 weeks in agar
Description: as §2

[7] = test system: MiaPaCa2 human pancreatic cancer cells; test: inhibition of proliferation, Alamar blue, 72 h; type: cell-based; details: Homo sapiens, MIA PaCa-2
Description: The ability of selected compounds from the libraries 6, 15 and 19 to inhibit the growth of MiaPaCa2 human pancreatic cancer cells was investigated. Human pancreatic carcinoma (MiaPaCa2) cells were plated at a low confluency into 96-well tissue culture-treated plates. After allowing cells to attach and grow overnight at 37 degrees in a 5% CO2 incubator, growth medium was replaced with fresh medium (100 μl/well) containing compounds in a range from 0.1-100 μM. All treatments were made from 500× stock solutions in DMSO, and the control wells received an equivalent amount of DMSO in medium. After 72 hours of growth in the presence of the compounds, Alamar blue was added to the wells according to the manufacturer's instructions (Life Technologies, Grand Island, N.Y.) and cells were incubated in its presence for 2-3 hours. Fluorescence readings were performed using a Biotek Synergy II plate reader with […] wavelengths of 530/590 nm. […] Calculated IC50s are representative of at least three independent experiments.

LPAAT-β [8] = biological target: T1, LPAAT-β; test: DTNB (Ellman's reagent) 96-well plate screening assay of LPAAT-β enzymatic activity; type: biochemical; set-up: The assay utilizes full-length, recombinant, baculovirus-produced LPAAT-β; made in house
Description: Screening with a modified screening assay in 96-well plate format for LPAAT-β enzymatic activity was performed as reported by Aguado and Campbell (Aguado et al., Characterization of a human lysophosphatidic acid acyltransferase that is encoded by a gene located in the class III region of the human major histocompatibility complex. J. Biol. Chem. 1998, 273, 4096-105).
The assay utilizes full-length, recombinant, baculovirus-produced LPAAT-β, which catalyzes the production of dioleoyl-[…] from the enzymatic substrates oleoyl-lysophosphatidic acid (LPA) and oleoyl-coenzyme A (Scheme 2). The ability of the compound to inhibit the LPAAT-β activity was assayed by the colorimetric measurement of the reaction of the free thiol group of the released coenzyme A with Ellman's reagent [5,5′-dithiobis-(2-nitrobenzoic acid) or DTNB] (Riener et al., Quick measurement of protein sulfhydryls with Ellman's reagent and with 4,4′-dithiodipyridine. Anal. Bioanal. Chem. 2002, 373, 266-76). […] A hit identified from the Life Chemicals library 6a (IC50 100 nM) was selected for further investigation.

[9] = body fat percentage measured by MRI in treated mice; type: in vivo; details: after 20 days of treatment
From the text: YG9-095-3 can be a useful compound for the treatment of obesity as well as cancer.

total cellular PA levels = total cellular PA levels measured by mass spectroscopy in intact cells; type: cell-based
From the text: Inhibition is by more than 50%. Inhibition is greater than that seen with a known DAGK inhibitor. DAGK is an enzyme that can also increase PA levels.

LPAAT-β [10] = biological target: T1, LPAAT-β; test: secondary thin layer chromatography (TLC) assay measuring fluorescent PA; type: biochemical; set-up: The assay utilizes full-length, recombinant, baculovirus-produced LPAAT-β; made in house
RalA = RalA activation (FIG. 21); type: cell-based
From the text: Therefore this inhibitor can target the RalA effector arm as well as mTOR which few compounds can do.

[11] = test system: Caspase 3 activity in IGROV-1 cells; test: induction of apoptosis, cleavage of fluorescent Caspase 3 substrate; type: cell-based, human; details: IGROV-1, 48 hr
Description: FIGS. 5A-5B. Induction of apoptosis with 19s treatment in pancreatic and ovarian cancer cell lines. Human pancreatic (MiaPaCa2) and ovarian (IGROV-1) cells were treated for 48 hr with LPAAT-b inhibitors then harvested and the samples assayed for their ability to cleave a fluorescent Caspase 3 specific substrate, Av-DEVD-AMC (A) In addition, the samples were run on SDS-PAGE gels and Western blotted to assess the presence of the activated form of Caspase 3 (inset). MiaPaCa2 cells show 3.5-fold and IGROV-1 cells show 25-fold activation of Caspase 3 activity after treatment with 19s compared to a vehicle-treated control sample. (B) PARP cleavage in MiaPaCa2 cells treated for 72 hr with 10 μM 19s and 19p.

[12] = test system: mTOR effector protein phosphorylation in MiaPaCa2 cells; test: mTOR effector protein phosphorylation, Western blotting; type: cell-based; details: Homo sapiens
From the text: FIG. 4. Inhibition of mTOR effector protein phosphorylation by LPAAT-β inhibitor.

SMILES: CCOc1ccc(Cl)cc1-c1cc(N)nc(Nc2ccc(Cl)cc2)c1 [Compound 2]
- in vitro activity against LPAAT-β enzyme activity, in words (LPAAT-β [1]): potent in vitro activity

SMILES: C#CCOC(=O)Nc1ccc(Cl)c(-c2nc3cc(Cl)ccc3o2)c1 [Compound 3]
- in vitro activity against LPAAT-β enzyme activity, in words (LPAAT-β [1]): potent anti-enzymatic activity

- IC50 [7]: 6.3 ± 2.9 µM
- IC50 (LPAAT-β [8]; Table 4, read-out: IC50 (μm) (DTNB assay) (converted)): 0.36 ± 0.1 µM
- IC50 (LPAAT-β [8]; read-out: IC50 (μM) (DTNB assay) (converted)): 0.36 ± 0.1 µM
- cell membrane permeability (total cellular PA levels; concluded from treatment of intact cells): cell membrane permeable
- IC50 (LPAAT-β [10]): 2.4 ± 0.7 µM
- IC50 (LPAAT-β [10]; Table 4): 2.4 ± 0.7 µM
SMILES: C=CCc1cc(-c2ccc(Cl)c(Cl)c2)cc(C(C)=NNC(N)=S)c1O [Compound 19s]
- combination effect with regorafenib (pancreatic cancer cells [2]): additive to synergistic inhibition
- concentration at which P-p70S6k and p-4EBP1 are decreased (mTOR signaling): ≥ 3 µM
- effect on cell cycle progression (pancreatic cancer cells [3]): S-phase arrest and accumulation
- rescue of cells from the cell cycle effect by exogenous PA (pancreatic cancer cells [3]): can be rescued
- combination effect with 5-FU on cellular proliferation [4]: moderately synergistic
- combination effect with 5-FU on cellular proliferation (Panc-1 [5]): mildly additive to antagonistic
- combination effect with 5-FU on cellular proliferation (OVCAR-5 cells; at low concentration): additive
- combination effect with 5-FU on cellular proliferation (OVCAR-5 cells; at the higher concentrations of YG9-095-3): antagonistic
- inhibition of anchorage-independent growth (MiaPaCa2): potent inhibition
- inhibition of anchorage-independent growth (MDAMB-231): potent inhibition
- inhibition of anchorage-independent growth (Panc-1 [6]): potent inhibition
- inhibition of anchorage-independent growth (OVCAR-5): potent inhibition
- decrease in body fat percentage compared to vehicle treated controls [9]: 50%
- inhibition (reduction) of total cellular PA levels (total cellular PA levels; mass spectroscopy, intact cells): more than 50%
- inhibition of RalA activation (RalA): 50%
- activation of Caspase 3 activity compared to vehicle-treated control [11]: 25 fold
- inhibition at 10 µM ([12]; MIA PaCa-2, read-out: inhibition of P-4E-BP 1): 76%
- inhibition at 10 µM ([12]; MIA PaCa-2, read-out: inhibition of P-AKT): 88%
- inhibition at 10 µM ([12]; MIA PaCa-2, read-out: inhibition of P-p70): 43%
